Key:
[1] = tested on: sourgrass; experiment: Test D sourgrass; format: in vivo, Trichachne insularis; settings: Preemergence, 0 to 100 scale
Method in brief: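 Scoring used a 0–100 visual injury scale, with 0 meaning no effect and 100 complete control, assessed 14–21 days after application alongside untreated pots. Preemergence treatments went onto sandy loam surfaces of separately potted seeds within a day of sowing.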

[2] = tested on: scentless chamomile; experiment: Test E scentless chamomile; format: in vivo, Matricaria inodora; settings: Postemergence
Experimental: (§1) Compounds evaluated in this test were formulated in a non-phytotoxic solvent mixture which included a surfactant and applied to plants that were in the 1- to 4-leaf stage (postemergence application). A mixture of sandy loam soil and greenhouse potting mix in a 60:40 ratio was used for the postemergence test.
(§2) Plantings of these crops and weed species were adjusted to produce plants of appropriate size for the postemergence test. All plant species were grown using normal greenhouse practices. Crop and weed species include annual bluegrass (Poa annua), blackgrass (Alopecurus myosuroides), black nightshade (Solanum nigra), chickweed (Stellaria media), common poppy (Papaver rhoeas), deadnettle (Lamium amplexicaule), downy brome (Bromus tectorum), field violet (Viola arvensis), galium (Galium aparine), green foxtail (Setaria viridis), Italian ryegrass (Lolium multiflorum), jointed goatgrass (Aegilops cylindrica), kochia (Kochia scoparia), lambsquarters (Chenopodium album), littleseed canarygrass (Phalaris minor), rape (Brassica napus), redroot pigweed (Amaranthus retroflexus), Russian thistle (Salsola kali), scentless chamomile (Matricaria inodora), spring barley (Hordeum vulgare), sugar beet (Beta vulgaris), sunflower (Helianthus annuus), ivyleaf speedwell (Veronica hederaefolia), spring wheat (Triticum aestivum), winter wheat (Triticum aestivum), wild buckwheat (Polygonum convolvulus), wild mustard (Sinapis arvensis), wild oat (Avena fatua), windgrass (Apera spica-venti) and winter barley (Hordeum vulgare).
(§3) Treated plants and untreated controls were maintained in a greenhouse for approximately 21 to 28 days, after which all treated plants were compared to untreated controls and visually evaluated. […] A dash response (-) means no test result.

[3] = tested on: Green foxtail; experiment: Test D green foxtail; format: in vivo
From the text: Seeds, tubers, or plant parts of Alexandergrass (Brachiaria plantaginea), bermuda-grass (Cynodon dactylon), common pursiane (Portulaca oleracea), common ragweed (Ambrosia elatior), common groundsel (Senecio vulgaris), dallisgrass (Paspalum dilatatum), goosegrass (Eleusine indica), guineagrass (Panicum maximum), itchgrass (Rottboellia exaltata), Johnson grass (Sorghum halepense), large crabgrass (Digitaria sanguinalis), pitted morningglory (Ipomoea lacunosa), purple nutsedge (Cyperus rotundus), sandbur (Cenchrus echinatus), sourgrass (Trichachne insularis), Spanishneedles (Bidens bipinnata), surinam grass (Brachiaria decumbens) and tall mallow (Malva sylvestris) were planted into greenhouse pots of flats containing greenhouse planting medium. Plant species were grown in separate pots or individual compartments. Preemergence applications were made within one day of planting the seed or plant part.
Test chemicals were formulated in a non-phytotoxic solvent mixture which included a surfactant and applied preemergence to the surface of the pot containing seeds in a sandy loam soil. Untreated control pots and treated pots were placed in the greenhouse for growth and visually evaluated for injury 14 to 21 days after herbicide application. Plant response ratings, summarized in Table C, are based on a 0 to 100 scale where 0 is no injury and 100 is complete control. A dash (−) response means no test result.

[4] = tested on: chickweed; experiment: Test E chickweed; format: in vivo, Stellaria media; settings: Postemergence
Experimental: as §1, §2, §3

[5] = tested on: hairy beggarticks; experiment: Test C postemergence hairy beggarticks; format: in vivo, Bidens pilosa; settings: 0 to 100 scale, 0 no effect, 100 complete control
Method in brief: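 In this greenhouse assay, treated and untreated plants were kept for approximately 14 to 21 days following postemergence application, then rated by eye on a scale from 0 (no effect) to 100 (complete control).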

[6] = tested on: galium; experiment: Test E galium; format: in vivo, Galium aparine; settings: Postemergence
Experimental: […] A mixture of sandy loam soil and greenhouse potting mix in a 60:40 ratio was used for the postemergence test.
as §2, §3

[7] = tested on: arrowleaf sida; experiment: Test C postemergence arrowleaf sida; format: in vivo, Sida rhombifolia; settings: 0 to 100 scale, 0 no effect, 100 complete control
Experimental: Compounds evaluated in this test were formulated in a non-phytotoxic solvent mixture which included a surfactant and applied to plants that were grown for various periods of time before treatment (postemergence application). A mixture of sandy loam soil and greenhouse potting mix in a 60:40 ratio was used for the postemergence test.
Plantings of these crops and weed species were adjusted to produce plants of appropriate size for the postemergence test. All plant species were grown using normal greenhouse practices. Crop and weed species include arrowleaf sida (Sida rhombifolia), barnyardgrass (Echinochloa crus-galli), cocklebur (Xanthium strumarium), common ragweed (Ambrosia elatior), corn (Zea mays), cotton (Gossypium hirsutum), eastern black nightshade (Solanum ptycanthum), fall panicum (Panicum dichotomiflorum), field bindweed (Convolvulus arvensis), giant foxtail (Setaria faberii), hairy beggarticks (Bidens pilosa), ivyleaf morningglory (Ipomoea hederacea), johnsongrass (Sorghum halepense), ladysthumb smartweed (Polygonum persicaria), lambsquarters (Chenopodium album), large crabgrass (Digitaria sanguinalis), purple nutsedge (Cyperus rotundus), redroot pigweed (Amaranthus retroflexus), soybean (Glycine max), surinam grass (Brachiaria decumbens), velvetleaf (Abutilon theophrasti) and wild poinsettia (Euphorbia heterophylla).
Treated plants and untreated controls were maintained in a greenhouse for approximately 14, to 21 days, after which all treated plants were compared to untreated controls and visually evaluated. Plant response ratings, summarized in Table C, were based upon a 0 to 100 scale where 0 was no effect and 100 was complete control. A dash response (−) means no test result.

[8] = tested on: winter barley; experiment: Test E winter barley; format: in vivo, Hordeum vulgare; settings: Postemergence
Method in brief: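 Visual evaluation versus untreated controls after about 21 to 28 days in the greenhouse. Compound was in a surfactant-containing non-phytotoxic solvent; postemergence plants were treated at the 1- to 4-leaf stage, grown in a 60:40 sandy loam and potting mix blend.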

[9] = tested on: velvetleaf; experiment: Test A velvetleaf; format: in vivo, Abutilon theophrasti; settings: 0 to 10 scale where 0 is no effect and 10 is complete control
Method in brief: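 Ratings came from visual comparison with untreated plants about eleven days after treatment, scored 0 for no effect through 10 for complete control. Both soil-drench preemergence and runoff-spray postemergence applications were made at the same time.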

[10] = Rate 250 g/ha, 0 to 100 scale (0 no effect, 100 complete control)
[11] = Rate 64 g/ha, Preemergence; 0 to 100 scale, 0 no injury, 100 complete control
[12] = Rate 125 g/ha, Preemergence; 0 to 100 scale, 0 no injury, 100 complete control
[13] = Rate 500 g/ha, 0 to 100 scale, 0 no effect, 100 complete control

Row | Compound | Plant response rating, Scentless chamo ([2]; Rate 62 g/ha, 0 to 100 scale) | Plant response rating, Scentless chamo ([2]; Rate 125 g/ha, 0 to 100 scale) | Plant response rating, Scentless chamo [2, 10] | Green foxtail plant response rating [3, 11] | Plant response rating, Green foxtail [3, 11] | Plant response rating, Chickweed ([4]; Rate 62 g/ha, 0 to 100 scale) | Plant response rating, Chickweed ([4]; Rate 125 g/ha, 0 to 100 scale) | Plant response rating, Chickweed [4, 10] | Plant response rating H. beggarticks ([5]; Rate 140 g/ha) | Plant response rating H. beggarticks ([5]; Rate 560 g/ha) | Plant response rating, Galium ([6]; Rate 62 g/ha, 0 to 100 scale) | Plant response rating, Galium ([6]; Rate 125 g/ha, 0 to 100 scale) | Plant response rating, Galium [6, 10] | Plant response rating Arrowleaf sida ([7]; Rate 560 g/ha) | Plant response rating Arrowleaf sida ([7]; Rate 1120 g/ha) | Plant response rating, Barley (winter) ([8]; Rate 62 g/ha, 0 to 100 scale) | Plant response rating, Barley (winter) ([8]; Rate 125 g/ha, 0 to 100 scale) | Plant response rating, Barley (winter) [8, 10] | Plant response rating, Velvetleaf ([9]; Postemergence, Rate 1000 g/ha) | Plant response rating, Velvetleaf ([9]; Pre-emergence, Rate 2000 g/ha) | other results
1 | Cc1cccc(C)c1-n1c(=O)on(C(=O)N(c2ccc(F)cc2F)C(C)C)c1=O [Compound 28] | – | – | – | – | – | – | – | – | – | – | – | – | – | – | – | – | – | – | – | – | Plant response rating, Sourgrass ([1]; Rate 32 g/ha, 0 no injury, 100 complete control): 60; Sourgrass plant response rating ([1]; Rate 64 g/ha, 0 no injury, 100 complete control): 85; Sourgrass plant response rating ([1]; Rate 125 g/ha, 0 no injury, 100 complete control): 100; Plant response rating, Sourgrass ([1]; Rate 250 g/ha): 100
2 | CCn1c(=O)on(C(=O)N(c2ccc(F)cc2)C(C)C)c1=O [Compound 107] | 10 | 0 | 10 | 100 | 100 | 10 | 0 | 0 | 5 | 70 | 5 | 30 | 30 | 75 | 85 | 5 | 5 | 10 | – | – | Plant response rating, Green foxtail ([3]; Preemergence; Rate 16 g/ha; 0 to 100 scale, 0 no injury, 100 complete control): 100; Plant response rating, Green foxtail ([3]; Preemergence; Rate 32 g/ha; 0 to 100 scale, 0 no injury, 100 complete control): 100; Plant response rating, Green foxtail ([3]; Rate 16 g/ha; Preemergence; 0 to 100 scale, 0 no injury, 100 complete control): 100; Plant response rating, Green foxtail ([3]; Rate 32 g/ha; Preemergence; 0 to 100 scale, 0 no injury, 100 complete control): 100; Green foxtail plant response rating [3, 12]: 100; Plant response rating, Green foxtail [3, 12]: 100; Plant response rating, Green foxtail ([3]; Rate 250 g/ha; Preemergence; 0 to 100 scale): 100; Plant response rating, Green foxtail ([3]; Rate 500 g/ha, Preemergence; 0 to 100 scale): 100; Plant response rating H. beggarticks ([5]; Rate 280 g/ha): 60; Plant response rating H. beggarticks ([5]; Rate 1120 g/ha): 95; Plant response rating Arrowleaf sida ([7]; Rate 280 g/ha): 30
3 | CCn1c(=O)on(C(=O)N(c2ccc(F)cc2F)C(C)C)c1=O [Compound 116] | 50 | 0 | 0 | – | – | 0 | 0 | 20 | 80 | 90 | 30 | 40 | 40 | 85 | 90 | 0 | 10 | 10 | – | – | Plant response rating, Scentless chamo [2, 13]: 40; Plant response rating, Chickweed [4, 13]: 50; Plant response rating, Galium [6, 13]: 70; Plant response rating Arrowleaf sida ([7]; Rate 140 g/ha): 0; Plant response rating, Barley (winter) [8, 13]: 10
4 | CCOC(=O)Cn1c(=O)on(C(=O)N(c2ccc(F)cc2)C(C)C)c1=O [Compound 128] | – | – | – | – | – | – | – | – | – | – | – | – | – | – | – | – | – | – | 0 | 0 | –
5 | Cc1ccccc1Cn1c(=O)on(C(=O)N(c2ccc(Cl)cc2)C(C)C)c1=O [Compound 136] | – | – | – | – | – | – | – | – | – | – | – | – | – | – | – | – | – | – | 2 | 0 | –
6 | C=C(C)Cn1c(=O)on(C(=O)N(c2ccc(F)cc2)C(C)C)c1=O [Compound 139] | – | – | – | 98 | 98 | – | – | – | – | – | – | – | – | – | – | – | – | – | – | – | –

From patent publication US6737383B1, “Herbicidal oxadiazolidines” (priority 1999, dated 2004)
